Results reported in ChEMBL document CHEMBL4145553, “Design, synthesis, and biological evaluation of novel amide and hydrazide based thioether analogs targeting Histone deacteylase (HDAC) enzymes” (Eur J Med Chem, 2018).

Assays:
Type in all cases: functional
NCI-H522 = assay: Growth inhibition of human NCI-H522 cells assessed as cell growth at 10^-8 M incubated for 48 hrs by sulforhodamine B assay relative to control; conditions: NCI-H522, 48 h, read-out: Activity
SW-620 = assay: Growth inhibition of human SW620 cells assessed as cell growth at 10^-8 M incubated for 48 hrs by sulforhodamine B assay relative to control; conditions: SW-620, 48 h, read-out: Activity
SF-295 = assay: Growth inhibition of human SF295 cells assessed as cell growth at 10^-8 M incubated for 48 hrs by sulforhodamine B assay relative to control; conditions: SF-295, 48 h, read-out: Activity
MDA-MB-435 [1] = assay: Growth inhibition of human MDA-MB-435 cells assessed as cell growth at 10^-8 M incubated for 48 hrs by sulforhodamine B assay relative to control; conditions: MDA-MB-435, 48 h, read-out: Activity
OVCAR-8 [2] = assay: Growth inhibition of human OVCAR8 cells assessed as cell growth at 10^-8 M incubated for 48 hrs by sulforhodamine B assay relative to control; conditions: OVCAR-8, 48 h, read-out: Activity
U-251 = assay: Growth inhibition of human U251 cells assessed as cell growth at 10^-7 M incubated for 48 hrs by sulforhodamine B assay relative to control; conditions: U-251, 48 h, read-out: Activity
OVCAR-5 = assay: Growth inhibition of human OVCAR5 cells assessed as cell growth at 10^-7 M incubated for 48 hrs by sulforhodamine B assay relative to control; conditions: OVCAR-5, 48 h, read-out: Activity
DU-145 = assay: Growth inhibition of human DU145 cells assessed as cell growth at 10^-7 M incubated for 48 hrs by sulforhodamine B assay relative to control; conditions: DU-145, 48 h, read-out: Activity
COLO 205 = assay: Growth inhibition of human COLO205 cells assessed as cell growth at 10^-6 M incubated for 48 hrs by sulforhodamine B assay relative to control; conditions: COLO 205, 48 h, read-out: Activity
HCT-116 = assay: Growth inhibition of human HCT116 cells assessed as cell growth at 10^-6 M incubated for 48 hrs by sulforhodamine B assay relative to control; conditions: HCT-116, 48 h, read-out: Activity
SF-539 = assay: Growth inhibition of human SF539 cells assessed as cell growth at 10^-6 M incubated for 48 hrs by sulforhodamine B assay relative to control; conditions: SF-539, 48 h, read-out: Activity
SK-MEL-28 = assay: Growth inhibition of human SK-MEL-28 cells assessed as cell growth at 10^-6 M incubated for 48 hrs by sulforhodamine B assay relative to control; conditions: SK-MEL-28, 48 h, read-out: Activity
SK-OV-3 = assay: Growth inhibition of human SKOV3 cells assessed as cell growth at 10^-6 M incubated for 48 hrs by sulforhodamine B assay relative to control; conditions: SK-OV-3, 48 h, read-out: Activity
CCRF-CEM = assay: Growth inhibition of human CCRF-CEM cells assessed as cell growth at 10^-5 M incubated for 48 hrs by sulforhodamine B assay relative to control; conditions: read-out: Activity
NCI-H226 = assay: Growth inhibition of human NCI-H226 cells assessed as cell growth at 10^-5 M incubated for 48 hrs by sulforhodamine B assay relative to control; conditions: NCI-H226, 48 h, read-out: Activity
HCT-15 [3] = assay: Growth inhibition of human HCT15 cells assessed as cell growth at 10^-5 M incubated for 48 hrs by sulforhodamine B assay relative to control; conditions: HCT-15, 48 h, read-out: Activity
UACC-257 = assay: Growth inhibition of human UACC257 cells assessed as cell growth at 10^-5 M incubated for 48 hrs by sulforhodamine B assay relative to control; conditions: UACC-257, 48 h, read-out: Activity
NCI/ADR-RES [4] = assay: Growth inhibition of human NCI/ADR-RES cells assessed as cell growth at 10^-5 M incubated for 48 hrs by sulforhodamine B assay relative to control; conditions: read-out: Activity
Hs-578T = assay: Growth inhibition of human Hs 578T cells assessed as cell growth at 10^-5 M incubated for 48 hrs by sulforhodamine B assay relative to control; conditions: read-out: Activity
EKVX = assay: Growth inhibition of human EKVX cells assessed as cell growth at 10^-4 M incubated for 48 hrs by sulforhodamine B assay relative to control; conditions: read-out: Activity
LOX IMVI = assay: Growth inhibition of human LOXIMVI cells assessed as cell growth at 10^-4 M incubated for 48 hrs by sulforhodamine B assay relative to control; conditions: read-out: Activity
MDA-MB-435 [5] = assay: Growth inhibition of human MDA-MB-435 cells assessed as cell growth at 10^-4 M incubated for 48 hrs by sulforhodamine B assay relative to control; conditions: MDA-MB-435, 48 h, read-out: Activity
NCI-H322M = assay: Growth inhibition of human NCI-H322M cells incubated for 48 hrs by sulforhodamine B assay
HCT-15 [6] = assay: Growth inhibition of human HCT15 cells incubated for 48 hrs by sulforhodamine B assay; conditions: HCT-15, 48 h
OVCAR-8 [7] = assay: Growth inhibition of human OVCAR8 cells incubated for 48 hrs by sulforhodamine B assay; conditions: OVCAR-8, 48 h
NCI/ADR-RES [8] = assay: Growth inhibition of human NCI/ADR-RES cells incubated for 48 hrs by sulforhodamine B assay
786-0 = assay: Growth inhibition of human 786-0 cells incubated for 48 hrs by sulforhodamine B assay; conditions: 786-0, 48 h
HL-60 [9] = assay: Antiproliferative activity against human HL60 cells after 24 hrs by MTT assay
HL-60 [10] = assay: Induction of apoptosis in human HL60 cells assessed as necrotic cells by propidium iodide/Annexin V staining based flow cytometry (reference value: 0.34%)
MDA-MB-435 [11] = assay: Cell cycle arrest in human MDA-MB-435 cells assessed as accumulation at G2-phase by propidium iodide staining based flow cytometry (reference value: 3.68%)
[12] = read-out: LC50 (the source's name)
[13] = read-out: pLC50 (the source's name) (converted)

SMILES: CCS/C(Nc1ccccc1)=C(\C#N)C(=O)Nc1ccc(OC)cc1
- growth at 0.01 µM (NCI-H522): 107%
- growth at 0.01 µM (SW-620): 97%
- growth at 0.01 µM (SF-295): 94%
- growth at 0.01 µM (MDA-MB-435 [1]): 100%
- growth at 0.01 µM (OVCAR-8 [2]): 100%
- growth at 0.1 µM (U-251): 98%
- growth at 0.1 µM (OVCAR-5): 95%
- growth at 0.1 µM (DU-145): 96%
- growth at 1 µM (COLO 205): 96%
- growth at 1 µM (HCT-116): 69%
- growth at 1 µM (SF-539): 87%
- growth at 1 µM (SK-MEL-28): 85%
- growth at 1 µM (SK-OV-3): 93%
- growth at 10 µM (CCRF-CEM): 11%
- growth at 10 µM (NCI-H226): 37%
- growth at 10 µM (HCT-15 [3]): 16%
- growth at 10 µM (UACC-257): 56%
- growth at 10 µM (NCI/ADR-RES [4]): 18%
- growth at 10 µM (Hs-578T): 28%
- growth at 100 µM (EKVX): 16%
- growth at 100 µM (LOX IMVI): 12%
- growth at 100 µM (MDA-MB-435 [5]): -35%
- GI50 (NCI-H322M; read-out: GI50): 5.81 µM
- CC50 (NCI-H322M; [12]): > 100 µM
- TGI (NCI-H322M; read-out: TGI): > 100 µM
- GI50 (NCI-H322M; read-out: pGI50 (converted)): 5.75 µM
- CC50 (NCI-H322M; [13]): > 100 µM
- TGI (NCI-H322M; read-out: pTGI): > 100 µM
- GI50 (HCT-15 [6]; read-out: GI50): 1.19 µM
- CC50 (HCT-15 [6]; [12]): > 100 µM
- TGI (HCT-15 [6]; read-out: TGI): > 100 µM
- GI50 (HCT-15 [6]; read-out: pGI50 (converted)): 1.2 µM
- CC50 (HCT-15 [6]; [13]): > 100 µM
- TGI (HCT-15 [6]; read-out: pTGI): > 100 µM
- GI50 (OVCAR-8 [7]; read-out: GI50): 4.37 µM
- CC50 (OVCAR-8 [7]; [12]): > 100 µM
- TGI (OVCAR-8 [7]; read-out: TGI): > 100 µM
- GI50 (OVCAR-8 [7]; read-out: pGI50 (converted)): 4.37 µM
- CC50 (OVCAR-8 [7]; [13]): > 100 µM
- TGI (OVCAR-8 [7]; read-out: pTGI): > 100 µM
- GI50 (NCI/ADR-RES [8]; read-out: GI50): 2.62 µM
- CC50 (NCI/ADR-RES [8]; [12]): > 100 µM
- TGI (NCI/ADR-RES [8]; read-out: TGI): > 100 µM
- GI50 (NCI/ADR-RES [8]; read-out: pGI50 (converted)): 2.63 µM
- CC50 (NCI/ADR-RES [8]; [13]): > 100 µM
- TGI (NCI/ADR-RES [8]; read-out: pTGI): > 100 µM
- GI50 (786-0; read-out: GI50): 4.14 µM
- CC50 (786-0; [12]): > 100 µM
- TGI (786-0; read-out: TGI): > 100 µM
- GI50 (786-0; read-out: pGI50 (converted)): 4.17 µM
- CC50 (786-0; [13]): > 100 µM
- TGI (786-0; read-out: pTGI): > 100 µM
- Activity (HL-60 [9]): Dose-dependent effect
- GI50 (HL-60 [9]; Homo sapiens, HL-60, 24 h): 2.87 µM
- Activity (HL-60 [10]): 1.98%
- Activity (MDA-MB-435 [11]): 16.44%
